Key:
[1] = target: T1, Progestogen Receptor of Rabbit's Uterus (Oryctolagus cuniculus, UniProt P06186); assay: Relative affinity of the bond, progestogen receptor (tritiated product R displacement); assay type: binding; conditions: for Relative affinity of the bond (RAB), Progestogen, 2 H: incubation 2 H at 0° C.; for Relative affinity of the bond (RAB), Progestogen, 2 H / Relative affinity of the bond (RAB), Progestogen, 24 H: RAB=100(CH)/(CX); for Relative affinity of the bond (RAB), Progestogen, 24 H: incubation 24 H at 0° C.
T1 construct: The uteri were removed, weighed and homogenized at 0° C; from tissue; host or cells: uterine cytosol (150,000 g supernatant) of estradiol-primed immature rabbits
T1 sequence (P06186 1-930): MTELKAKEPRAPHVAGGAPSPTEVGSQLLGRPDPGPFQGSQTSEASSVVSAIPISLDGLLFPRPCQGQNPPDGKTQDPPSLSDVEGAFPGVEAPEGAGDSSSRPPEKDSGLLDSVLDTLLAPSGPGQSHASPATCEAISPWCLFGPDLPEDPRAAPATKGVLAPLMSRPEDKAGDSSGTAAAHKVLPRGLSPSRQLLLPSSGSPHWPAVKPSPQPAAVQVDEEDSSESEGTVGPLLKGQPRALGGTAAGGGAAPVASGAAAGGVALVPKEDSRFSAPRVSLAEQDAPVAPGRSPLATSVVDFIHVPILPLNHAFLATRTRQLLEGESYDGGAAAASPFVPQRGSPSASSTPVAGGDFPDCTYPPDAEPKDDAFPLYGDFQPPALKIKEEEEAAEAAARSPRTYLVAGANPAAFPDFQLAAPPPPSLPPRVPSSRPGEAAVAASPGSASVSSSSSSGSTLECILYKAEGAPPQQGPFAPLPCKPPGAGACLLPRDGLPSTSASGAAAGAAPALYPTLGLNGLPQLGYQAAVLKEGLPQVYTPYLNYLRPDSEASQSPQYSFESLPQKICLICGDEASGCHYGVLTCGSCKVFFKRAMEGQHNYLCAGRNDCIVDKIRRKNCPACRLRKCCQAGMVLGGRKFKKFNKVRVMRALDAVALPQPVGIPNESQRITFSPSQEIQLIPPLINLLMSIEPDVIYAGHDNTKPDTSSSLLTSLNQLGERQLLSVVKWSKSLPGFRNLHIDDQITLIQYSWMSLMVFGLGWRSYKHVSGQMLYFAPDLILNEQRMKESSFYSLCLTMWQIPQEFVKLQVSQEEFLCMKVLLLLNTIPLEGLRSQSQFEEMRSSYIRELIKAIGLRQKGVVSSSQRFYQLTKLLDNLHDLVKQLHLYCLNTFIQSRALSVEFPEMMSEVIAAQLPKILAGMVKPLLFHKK
Method: Progestogen Receptor of Rabbit's Uterus:
Impuberal rabbits weighing about 1 kg received a cutaneous application of 25 μg of estradiol and 5 days after this treatment, the animals were killed. The uteri were removed, weighed and homogenized at 0° C. using a Potter teflon-glass in a TS buffered solution (Tris 10 mM, Saccharose 0.25 M, HCl pH 7.4) (1 g of tissue for 50 ml of TS). The homogenate was then ultracentrifuged (150,000 g×90 minutes) at 0° C. and aliquots of the supernatant were incubated at 0° C. for a time t, with a constant concentration (T) of the tritiated product R (17,21-dimethyl-19-nor-Δ^4,9-pregnadiene-3,20-dione in the presence of increasing concentrations (0-2500.10^−9 M) either of cold R or of cold progesterone, or of the cold product to be tested. The concentration (B) of bound tritiated R was subsequently measured in each incubate by the technique of adsorption on dextran charcoal.
(§1) Calculation of the Relative Affinty of the Bond
(§2) The calculation of the Relative Affinity of the Bond (RAB) was identical for all the receptors. The following 2 curves were traced; the percentage of the bound tritiated hormone [formula]
(§3) was a function of the logarithm of the concentration of the cold reference hormone and [formula]
(§4) as a function of the logarithm of the concentration of the cold product tested.
(§5) One determined the straight line of the equation [formula]
(§6) The intersections of the straight line I50 and of the curves make it possible to evaluate the concentrations of the cold reference hormone (CH) and of the tested cold product (CX) which inhibit to an extend of 50% the binding of the tritiated hormone upon the receptor. The relative affinity of the bond (RAB) of the tested product is determined by the equation

[2] = target: T2, Androgen Receptor of Rat's Prostate (Rattus norvegicus, UniProt P15207); assay: Relative affinity of the bond, androgen receptor (tritiated testosterone displacement); assay type: binding; conditions: for Relative affinity of the bond (RAB), Androgen, 0.5 H: incubation 0.5 H at 0° C.; for Relative affinity of the bond (RAB), Androgen, 0.5 H / Relative affinity of the bond (RAB), Androgen, 25 H: RAB=100(CH)/(CX); for Relative affinity of the bond (RAB), Androgen, 25 H: incubation 25 H at 0° C.
T2 construct: Their prostates were removed, weighed and homogenized at 0° C; from tissue; host or cells: prostate cytosol (105,000 g supernatant) of castrated male Sprague-Dawley rats
T2 sequence (P15207 1-902): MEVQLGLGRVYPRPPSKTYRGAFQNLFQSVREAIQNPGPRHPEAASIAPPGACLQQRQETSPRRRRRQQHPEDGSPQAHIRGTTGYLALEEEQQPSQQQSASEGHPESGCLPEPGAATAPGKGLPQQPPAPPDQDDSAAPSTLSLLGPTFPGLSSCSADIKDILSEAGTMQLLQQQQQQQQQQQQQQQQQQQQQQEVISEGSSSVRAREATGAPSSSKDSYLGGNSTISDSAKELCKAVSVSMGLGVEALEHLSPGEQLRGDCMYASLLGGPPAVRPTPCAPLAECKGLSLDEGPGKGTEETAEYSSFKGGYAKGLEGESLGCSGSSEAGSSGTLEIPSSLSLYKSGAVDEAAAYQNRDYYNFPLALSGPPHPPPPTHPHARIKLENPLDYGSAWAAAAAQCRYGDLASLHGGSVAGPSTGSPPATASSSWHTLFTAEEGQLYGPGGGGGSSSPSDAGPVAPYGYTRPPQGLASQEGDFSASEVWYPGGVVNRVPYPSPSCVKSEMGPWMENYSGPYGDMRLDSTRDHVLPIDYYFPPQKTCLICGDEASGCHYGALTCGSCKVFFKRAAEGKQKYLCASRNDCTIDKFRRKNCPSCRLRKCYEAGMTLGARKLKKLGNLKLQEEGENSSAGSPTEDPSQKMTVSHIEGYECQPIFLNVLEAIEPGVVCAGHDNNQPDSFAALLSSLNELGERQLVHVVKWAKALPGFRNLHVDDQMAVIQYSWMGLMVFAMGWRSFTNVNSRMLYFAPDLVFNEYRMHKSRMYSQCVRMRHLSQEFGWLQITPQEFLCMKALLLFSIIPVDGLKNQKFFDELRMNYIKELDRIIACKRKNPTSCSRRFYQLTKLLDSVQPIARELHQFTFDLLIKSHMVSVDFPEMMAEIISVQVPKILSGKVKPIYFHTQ
Method: Androgen Receptor of Rat's Prostate:
Male Sprague Dawley EPOS rats weighing 160 to 200 g were castrated and 24 hours after the castration, the animals were killed. Their prostates were removed, weighed and homogenized at 0° C. using a Potter teflon-glass in a TS buffered solution (Tris 10 mM, saccharose 0.25 M, HCl pH 7.4) (1 g of tissue for 5 ml of TS). The homogenate was ultracentrifuged (105,000 g for 60 minutes) at 0° C. and aliquots of the supernatant were incubated at 0° C. for an incubation time E with a constant concentration (T) of tritiated testosterone in the presence of increasing concentrations (0-1000.10^−9 M) either of cold testosterone or of the product to be tested. The concentration of bound tritiated testosterone (B) was then measured in each incubate by the adsorption on dextran carbon technique.
as §1, §2, §3, §4, §5, §6

Compound	affinity for the pregesterone receptor [1]	Relative affinity of the bond (RAB), Progestogen, 2 H [1]	Relative affinity of the bond (RAB), Progestogen, 24 H [1]	Relative affinity of the bond (RAB), Androgen, 0.5 H [2]	Relative affinity of the bond (RAB), Androgen, 25 H [2]	affinity for the androgen receptor [2]
CC#C[C@]1(O)CC[C@H]2[C@@H]3CCC4=CC(=O)CCC4=C3[C@@H](CCCCCCCCCCC(=O)NCCCC)C[C@@]21C [Example 22, N-butyl-17β-hydroxy-3-oxo-17α-(1-propynyl)-11β-Δ^4,9-estradiene undecanamide]	moderate affinity	12	21	0.0	0	–
CN(C)CCN(C)C(=O)CCCCCCCCCC[C@H]1C[C@]2(C)[C@@H](O)CC[C@H]2[C@@H]2CCC3=CC(=O)CCC3=C12 [Example 19, N-[2-(dimethylamino)-ethyl]-17β-hydroxy-N-methyl-3-oxo-11β-Δ^4,9-estradiene undecanamide]	–	6	7	11	11	moderate affinity
CN(Cc1ccccc1)C(=O)CCCCCCCCCC[C@H]1C[C@]2(C)[C@@H](O)CC[C@H]2[C@@H]2CCC3=CC(=O)CCC3=C12 [Example 17, N-benzyl-17β-hydroxy-N-methyl-3-oxo-11β-Δ^4,9-estradiene undecanamide]	moderate affinity	0	16	0.12	1.2	–
CCCCN(C)C(=O)CCCCCCCCCC[C@H]1C[C@]2(C)[C@@H](O)CC[C@H]2[C@@H]2CCc3cc(O)ccc3[C@@H]12 [Example 13, N-Butyl-3,17β-Dihydroxy-N-Methyl-11β-Δ^1,3,5(10)-Estratriene-Undecanamide]	–	0.0	1.8	0	0.12	–
CC(C)N(C)C(=O)CCCCCCCCCC[C@H]1C[C@]2(C)[C@@H](O)CC[C@H]2[C@@H]2CCc3cc(O)ccc3[C@@H]12 [Example 16, 3,17β-dihydroxy-N-methyl-N-isopropyl-11β-Δ^1,3,5(10)-estratriene undecanamide]	–	0.5	2	0	0.4	–

Continued, in another order:

affinity for the pregesterone receptor [1]	Relative affinity of the bond (RAB), Progestogen, 2 H [1]	Relative affinity of the bond (RAB), Progestogen, 24 H [1]	Relative affinity of the bond (RAB), Androgen, 0.5 H [2]	Relative affinity of the bond (RAB), Androgen, 25 H [2]	Compound	affinity for the androgen receptor [2]
–	0	0	0	0.4	CCCCN(C)C(=O)CCCCCCCCCCC[C@H]1C[C@]2(C)[C@@H](O)CC[C@H]2[C@@H]2CCc3cc(O)ccc3[C@@H]12 [Example 24, N-butyl-3,17β-dihydroxy-N-methyl-11β-Δ^1,3,5(10)-estratriene dodecanamide]	–
–	0.3	1	0	0	N-butyl-3,17β-dihydroxy-N-methyl-19-nor-11β-Δ^1,3,5(10)-pregnatrien-20-yn undecanamide [Example 21]	–
